Data published in patent publication US10363239B2, “Method for inhibiting growth of cancer cells” (Pain Therapeutics, Inc., priority 2013, dated 2019).
Like-named read-outs stand apart in the source and are kept apart here.

Columns and labels:
mu opiate receptor (MOR) = test: MOR agonist activity using [35S]GTPγS binding assay in striatal membranes; type: biochemical; settings: for MOR agonist activity ([35S]GTPγS binding), FLNA-Binding Compound as Agonist 1 μM + BFNA: 1 μM compound + 1 μM β-funaltrexamine
Method in brief: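 Striatal membranes (200 μg) were preincubated 5 min at 30 °C in HEPES pH 7.5 with 100 mM NaCl, 1 mM MgCl2 and 0.5 nM [35S]GTPγS, then 5 min more with 0.1–10 μM compound. Gαo was immunoprecipitated and bound radioactivity counted by scintillation.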

[1] = target: FLNA pentapeptide of SEQ ID NO: 1 (Bn-VAKGL) (Homo sapiens, UniProt P21333); test: FITC-NLX-based FLNA screening assay (inhibition of FITC-naloxone binding to Bn-VAKGL on streptavidin plates); settings: 10 nM FITC-NLX
[2] = 0.1 μM compound relative to DAMGO
[3] = 1 μM compound + BFNA relative to DAMGO + BFNA
[4] = 1 μM compound relative to DAMGO
[5] = FLNA-binding compound 0.01 μM, read-out: Percent Binding Inhibition
[6] = FLNA-binding compound 0.1 μM, read-out: Percent Binding Inhibition
[7] = FLNA-binding compound 1 μM, read-out: Percent Binding Inhibition
[8] = read-out: Percent Binding Inhibition, FLNA-binding compound 0.01 μM
[9] = read-out: Percent Binding Inhibition, FLNA-binding compound 0.1 μM
[10] = read-out: Percent Binding Inhibition, FLNA-binding compound 1 μM
[11] = Series C-1, 0.1 μM compound, relative to DAMGO
[12] = Series C-1, 0.1 μM compound, [35S]GTPγS binding to Gαo, striatal membranes
[13] = Series C-1, 1 μM compound + 1 μM β-FNA
[14] = Series C-1, 1 μM compound + β-FNA, relative to DAMGO + BFNA
[15] = Series C-1, 1 μM compound, relative to DAMGO
[16] = Series C-1, 1 μM compound, [35S]GTPγS binding to Gαo, striatal membranes

Row | SMILES | MOR agonist activity ([35S]GTPγS binding), FLNA-Binding Compound as Agonist 0.1 μM (mu opiate receptor (MOR); 0.1 μM compound) [%] | % DAMGO (0.1 μM) (mu opiate receptor (MOR); [2]) [%] | MOR agonist activity ([35S]GTPγS binding), FLNA-Binding Compound as Agonist 1 μM (mu opiate receptor (MOR); 1 μM compound) [%] | MOR agonist activity ([35S]GTPγS binding), FLNA-Binding Compound as Agonist 1 μM + BFNA (mu opiate receptor (MOR)) [%] | % DAMGO + BFNA (mu opiate receptor (MOR); [3]) [%] | % DAMGO (1 μM) (mu opiate receptor (MOR); [4]) [%] | inhibition at 0.01 µM [1, 5] [%] | inhibition at 0.1 µM [1, 6] [%] | inhibition at 1 µM [1, 7] [%] | inhibition at 0.01 µM [1, 8] [%] | inhibition at 0.1 µM [1, 9] [%] | inhibition at 1 µM [1, 10] [%] | further results
1 | COc1ccc(OCC(O)CN2CCOc3ccccc32)cc1 (stereo not drawn) [Compound A0076] | 79.8 | 46.4 | 172.6 | 41.2 | 119.4 | 78.6 | 36.1 | 40 | 44.9 |  |  |  | 
2 | CC1CCC(C(C)C)C(OCC(O)CN2CCc3ccccc3C2)C1 (stereo not drawn) [Compound A0040] | 46.1 | 23.5 | 149.0 | 16.7 | 22.6 | 54.0 |  |  |  | 45 | 50.4 | 56.3 | 
3 | OC(COc1ccc(Br)c(F)c1)CN1CCc2ccccc2C1 (stereo not drawn) [Compound A0057] | 124.2 | 79.6 | 192.1 | 44.8 | 112.3 | 83.3 | 29.1 | 37 | 43.4 |  |  |  | 
4 | CC(=O)c1ccc(S(=O)(=O)N2CCOC23CCN(CC(=O)O)CC3)cc1 [Compound C0100M] |  |  |  |  |  |  | 52.2 | 58.2 | 64.5 |  |  |  | % DAMGO (0.1 μM) (mu opiate receptor (MOR); Series C-2, 0.1 μM compound, relative to DAMGO): 103.6%; MOR agonist activity, percent [35S]GTPγS binding at the stated compound concentration (mu opiate receptor (MOR); Series C-2, 0.1 μM compound, [35S]GTPγS binding to Gαo, striatal membranes): 173.6%; MOR agonist activity, percent [35S]GTPγS binding at the stated compound concentration (mu opiate receptor (MOR); Series C-2, 1 μM compound + 1 μM β-FNA): 195.6%; % DAMGO + BFNA (mu opiate receptor (MOR); Series C-2, 1 μM compound + β-FNA, relative to DAMGO + BFNA): 411.8%; % DAMGO (1 μM) (mu opiate receptor (MOR); Series C-2, 1 μM compound, relative to DAMGO): 110.6%; MOR agonist activity, percent [35S]GTPγS binding at the stated compound concentration (mu opiate receptor (MOR); Series C-2, 1 μM compound, [35S]GTPγS binding to Gαo, striatal membranes): 245.9%
5 | CC1CN(CC(O)COc2ccc(Br)c(Cl)c2)CC(C)O1 (stereo not drawn) [Compound A0045] | 143.9 | 73.3 | 274.2 | 99.2 | 134.2 | 99.3 | 28.1 | 35 | 37.8 |  |  |  | 
6 | CC1CCC(C(C)C)C(OCC(O)CN2CC(C)OC(C)C2)C1 (stereo not drawn) [Compound A3333] | 170.7 | 88.9 | 328.3 | 65.9 | 136.7 | 101.0 |  |  |  |  |  |  | Percent Binding Inhibition ([1]; FLNA-binding compound 0.01 μM): 40.4%; Percent Binding Inhibition ([1]; FLNA-binding compound 0.1 μM): 48.5%; Percent Binding Inhibition ([1]; FLNA-binding compound 1 μM): 54.2%
7 | COc1ccc(S(=O)(=O)N2CCC3(CC2)OCCN3S(=O)(=O)c2ccc(OC)cc2)cc1 [Compound 7866] |  |  |  |  |  |  | 38.5 | 47.9 | 53.4 |  |  |  | % DAMGO (0.1 μM) (mu opiate receptor (MOR); [11]): 79.3%; Concentration of FLNA-Binding Compound as Agonist 0.1 μM (mu opiate receptor (MOR); [12]): 152.3%; Concentration of FLNA-Binding Compound as Agonist 1 μM + BFNA (mu opiate receptor (MOR); [13]): 62.4%; % DAMGO + BFNA (mu opiate receptor (MOR); [14]): 129.5%; % DAMGO (1 μM) (mu opiate receptor (MOR); [15]): 94.8%; Concentration of FLNA-Binding Compound as Agonist 1 μM (mu opiate receptor (MOR); [16]): 308.2%
8 | COCOc1ccc(C(=O)CC2c3c(cc4c(c3OC)OCO4)CC[N+]2(C)C)cc1C (stereo not drawn) [Compound B0041] |  |  |  |  |  |  |  |  |  | 44 | 46.8 | 52.8 | % DAMGO (0.1 μM) (mu opiate receptor (MOR); Series B, 0.1 μM compound, relative to DAMGO): 39.3%; MOR agonist activity, percent [35S]GTPγS binding at the stated compound concentration (mu opiate receptor (MOR); Series B, 0.1 μM compound, [35S]GTPγS binding to Gαo, striatal membranes): 61.6%; MOR agonist activity, percent [35S]GTPγS binding at the stated compound concentration (mu opiate receptor (MOR); Series B, 1 μM compound + 1 μM β-FNA): 41.9%; % DAMGO + BFNA (mu opiate receptor (MOR); Series B, 1 μM compound + β-FNA, relative to DAMGO + BFNA): 128.5%; % DAMGO (1 μM) (mu opiate receptor (MOR); Series B, 1 μM compound, relative to DAMGO): 47.2%; MOR agonist activity, percent [35S]GTPγS binding at the stated compound concentration (mu opiate receptor (MOR); Series B, 1 μM compound, [35S]GTPγS binding to Gαo, striatal membranes): 109.3%
9 | CC(=O)c1ccc(C(=O)N2CCC3(CC2)OCCN3S(=O)(=O)c2ccc(C(C)=O)cc2)cc1 [Compound C0052] |  |  |  |  |  |  |  |  |  | 28 | 35.6 | 40.8 | % DAMGO (0.1 μM) (mu opiate receptor (MOR); [11]): 74.8%; Concentration of FLNA-Binding Compound as Agonist 0.1 μM (mu opiate receptor (MOR); [12]): 108.4%; Concentration of FLNA-Binding Compound as Agonist 1 μM + BFNA (mu opiate receptor (MOR); [13]): 42.7%; % DAMGO + BFNA (mu opiate receptor (MOR); [14]): 97.0%; % DAMGO (1 μM) (mu opiate receptor (MOR); [15]): 69.9%; Concentration of FLNA-Binding Compound as Agonist 1 μM (mu opiate receptor (MOR); [16]): 162.8%
